These results are taken from patent US20020004042A1, “Gene therapy for pulmonary edema using adenovirus vectors encoding a beta2adrenergic receptor gene” (priority 2000, published 2002).

In test [1] the test system is Na,K-ATPase. The test is described as follows: Western analysis of Na,K-ATPase α1 and β1 in basolateral membrane of A549 cells. The note with it: ICI 118,551 10^-6 M 10 minutes prior to procaterol. Type of test: cell-based, human. As to the method: To test if β2AR overexpression can affect active Na^+ transport in vitro, A549 cells were treated as described above prior to measurement of ouabain-sensitive Na^+ transport (an index of Na,K-ATPase activity). […] Additional studies done to establish the mechanisms responsible for this finding included quantification of Na,K-ATPase α1 and β1 expression in the basolateral membrane of A549 cells.

Test [2] relates to rat lungs. The test is described as follows: Lung liquid clearance, fluid-filled isolated perfused rat lung preparation. Type of test: in vivo, Sprague-Dawley rats. The note with it: procaterol 100 μg every 8 hours by gavage. How it is done: To test if β2AR gene transfer could increase transgene expression and if overexpression could affect the transepithelial osmotic gradient necessary to achieve pulmonary edema clearance, normal Sprague-Dawley rats were infected with the vectors disclosed in Example 1. 250-300 gm male Sprague-Dawley rats were lightly sedated with pentobarbital prior to orotracheal intubation with a 14 g angiocatheter. Adenovirus (4×10^9 pfu) was suspended in […] of a 50% surfactant/50% dialysis buffer mixture (Surfanta, Abbott Laboratories, Columbus, Ohio). […]
Seven days after infection, whole lung transgene expression was measured via Western analysis using a rabbit anti-human β2AR antibody and chemiluminescent detection method. […] To test for in vivo transgene function lung liquid clearance was measured using a well-established isolated lung preparation. […]
To test if agonist-induced loss of receptor function and/or expression occurs in the alveolar epithelium normal rats were treated with the β2AR specific agonist procaterol (100 μg every 8 hours by gavage). Lung liquid clearance was then measured using a fluid-filled isolated lung preparation in the presence of procaterol (10^−6 M instilled into the alveolar airspace and perfused through the pulmonary artery) beginning 4 hours after the first dose. […]

For test [3], the target named is T1, β2AR (Rattus norvegicus, UniProt P10608).
T1 construct: from tissue; host or cells: apical membranes of rat peripheral lung
T1 sequence (P10608 whole entry): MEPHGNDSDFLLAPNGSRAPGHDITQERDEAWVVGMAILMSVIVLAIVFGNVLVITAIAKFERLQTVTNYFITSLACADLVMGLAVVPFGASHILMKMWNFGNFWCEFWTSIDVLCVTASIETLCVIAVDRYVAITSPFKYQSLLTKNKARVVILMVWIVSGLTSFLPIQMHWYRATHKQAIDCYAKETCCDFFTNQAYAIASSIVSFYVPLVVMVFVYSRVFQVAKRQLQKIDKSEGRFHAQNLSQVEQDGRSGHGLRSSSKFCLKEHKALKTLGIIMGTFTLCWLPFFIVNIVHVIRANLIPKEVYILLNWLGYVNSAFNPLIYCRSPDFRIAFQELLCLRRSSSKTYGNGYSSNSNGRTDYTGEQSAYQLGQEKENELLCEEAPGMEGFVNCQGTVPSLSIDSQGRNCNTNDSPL
The test is described as follows: Western analysis of β2AR in apical membranes of peripheral lung of procaterol-treated rats. Type of test: in vivo. The note with it: procaterol 100 μg every 8 hours by gavage. As to the method: To test if agonist-induced loss of receptor function and/or expression occurs in the alveolar epithelium normal rats were treated with the β2AR specific agonist procaterol (100 μg every 8 hours by gavage). Lung liquid clearance was then measured using a fluid-filled isolated lung preparation in the presence of procaterol (10^−6 M instilled into the alveolar airspace and perfused through the pulmonary artery) beginning 4 hours after the first dose. […] Thus, the loss of catecholamine responsive lung liquid clearance in these rats is likely due, in part, to receptor downregulation.

Regarding `Cc1ccc(OCC(O)C(C)NC(C)C)c2c1CCC2` (stereo not shown) [ICI 118,551], in test [1], the “effect of antagonist pre-treatment on recruitment of Na,K-ATPase to the cell membrane” value is “blocked”.

On to `CCC(NC(C)C)C(O)c1ccc(O)c2[nH]c(=O)ccc12` (stereo not shown) [procaterol], for which the “lung liquid clearance in presence of procaterol after procaterol pretreatment, 4 hours” value in test [2] (4 hours after first dose, 10^-6 M during measurement) is on record as “not different from untreated controls”. Besides, the “lung liquid clearance in presence of procaterol after procaterol pretreatment, 24 hours” value in test [2] (24 hours) is on record as “remained less than naive rats”. For the same compound, the “β2AR expression in apical membranes of peripheral lung” value in test [3] is recorded as “marked reductions”.
